This is an account of results in patent US9233946B2, “Sulfonamide compounds” (KANCERA AB, priority 2010, dated 2016).

Usually IC50 stands for the concentration that inhibits the measured activity by half.

Structures are written as SMILES.

One experiment has as its system PANC-1 cells. The experiment can be described thus: Quantification of F-2,6-P2 in PANC-1 cells. The note with it: Homo sapiens, PANC-1; read-out: IC50 based on quantification of F-2,6-P2. In kind it is cell-based. From the text:
(§1) The relative kinase (formation) and phosphatase (degradation) activities of the bi-functional enzymes PFKFB3 and PFKFB4 control the intracellular levels of the regulator F-2,6-P2, which acts as an allosteric activator of glycolysis. The levels of F-2,6-P2 have been determined in three different cancer cell lines (MCF-7, PANC-1 and NUGC-3) using the van Shaftingen assay. The assay protocols described under “Methods for measurement of enzymatic activity of PFKFB3 and PFKFB4, Method A” have been adapted for the measurement of the inhibitory effect of compounds on the kinase activity of the various isoforms of the bifunctional enzyme (endogenously expressed) in the different cell lines. The modifications are described in the protocol below. All reagents were purchased from commercial sources or prepared inhouse.
Cell Line B (PANC-1, Human Pancreatic Carcinoma Cell Line)
• Cells: PANC-1 (ATCC-CRL-1469). Lot. no: 58564651. • Growth medium: Dulbecco's Modified Eagle's Medium, DMEM, ATCC-30-2002 10% FBS, Invitrogen, 10106-169
Cells were seeded at a concentration of 250 000 cells/mL in 100 μL growth medium (25 000 cells/well)
Starvation medium: DMEM/F12 without phenol red and glucose free, SVA, 991373 0.25% FBS, Invitrogen, 10106-169
Induction medium: DMEM/F12 without phenol red and glucose free, SVA, 991373 0.25% FBS, Invitrogen, 10106-169 (same as starvation medium)
Cells were seeded in 96-well Corning Costar tissue culture plates (CLS3595, Sigma-Aldrich) using the concentrations specified above for the three different cell lines A-C and incubated over night at 37° C. and 5% CO2. Row A was left empty. Next day the growth medium was discarded and replaced with 100 μL starvation medium. The plates were incubated for 18 h at 37° C. and 5% CO2. After 18 h of starvation the cells were induced with 100 μL compound or control solutions. Compounds were either tested in two concentrations (50 μM and 10 μM) or in dose response curves starting from 50 μM and the final DMSO concentration in assay plates was 0.5%. Also a dose response curve of a reference inhibitor was included in row H on each plate. All compounds were tested in duplicate plates. Compounds (in 96 well CLS 3365, Sigma-Aldrich) were serial diluted in DMSO from 10 mM compound DMSO stock solutions with Janus (automated liquid handling workstation from PerkinElmer). 5 μL were transferred to a Greiner deep well plate (736-0155, VWR) with 495 μL starvation medium. The final start concentration of compounds in the dilution plate was 100 μM, 1% DMSO. For compounds tested as single points, 10 mM compound solutions were diluted five fold in DMSO to 2 mM, followed by the transfer of 5 μL to separate dilution plates with 495 μL starvation medium. The final concentration of compounds in these dilution plates were 100 or 20 μM, respectively, and final concentration of DMSO was 1%. The plates were incubated at 37° C. and 5% CO2 for 1 h, followed by the addition of 10 μL 20 mM D-glucose in starvation medium. Controls, with and without 1 mM glucose, were included in row B. The final assay volume was 210 μL per well. After 2 h of incubation at 37° C. and 5% CO2, supernatants were discarded and the cells were lysed by the addition of 25 μL 250 mM NaOH. The plates were incubated at 37° C. and 5% CO2 for 5 min followed by an addition of 75 μL MilliQ dH2O. The supernatants were further diluted with 210 μL MilliQ dH2O to a final concentration of 20 mM NaOH. 200 μL were transferred to NUNC 96-well plates (7322661, VWR) and the plates were sealed and stored at −20° C. until analysis.
(§2) The amount of F-2,6-P2 was quantified based on the coupled enzymatic reaction described by Van Schaftingen. If necessary the samples were further diluted in 20 mM NaOH before quantification. Plates stored at −20° C. were thawed and the F-2,6-P2 quantification was initiated by transferring 40 μL from each well of the NUNC plate to the corresponding position in a trans-parent 96-well SpectraPlate-MB (6005649, PerkinElmer). […]

The next experiment concerns NUGC-3 cells. Briefly: Quantification of F-2,6-P2 in NUGC-3 cells. In kind it is cell-based. The note with it: Homo sapiens, read-out: IC50 based on quantification of F-2,6-P2.
Text: as §1
Cell Line C (NUGC-3, Human Gastric Cancer Cell Line)
Cells were seeded at a concentration of 350 000 cells/mL in 100 μL growth medium (35 000 cells/well) […]
as §2

Experiment [1] relates to NUGC3 gastric tumor cell line. Briefly: Inhibition of cancer cell proliferation (Sulphorhodamine B total cellular protein). The experiment is classed as cell-based, human. The following applies: added at 0 h and again at 48 h, total of 120 h, FIG. 1. The method, then:
To assess the antiproliferative response elicited by the compounds of the present invention in different tumour cell lines, total cellular protein in samples was quantified using the Sulphorhodamine B kit, TOX6, (Sigma-Aldrich).
Cells from selected tumour cell lines were cultured at 37° C., 5% CO2, normoxia, in DMEM/F12 medium +10% FBS. Cells were plated at a density of 6-12 000 cells/well, depending on cell-line specific size and growth characteristics, and allowed to attach overnight.
Culture media supernatants were then removed and replaced with either fresh medium or with compounds of the present invention diluted in cell culture medium to indicated concentrations, and to a maximal DMSO concentration of 0.1%. All treatments were in quadruplicate. After indicated incubation times, samples were washed with PBS and the total cellular protein in each sample was quantitated after precipitation with TCA according to the manufacturer's instructions. […] After air drying, bound dye was solubilized in 200 μL 10 mM Tris base, and the absorbance of dye was measured at a wavelength of 565 nm. To quantify growth, samples were collected also at t=0 h, and the resulting absorbance was set to 100%.
In brief, the Example 74 was added at the indicated concentrations at 0 h and again at 48 h. After a total of 120 h, the measured effect on cancer cell proliferation was quantified as described above.

With `COC(=O)c1cccc(NS(=O)(=O)c2sc3ccc(Cl)cc3c2C)c1` [Example 74, Methyl 3-{[(5-chloro-3-methyl-1-benzothien-2-yl)sulfonyl]amino}benzoate], the concentration for half-maximal inhibition (IC50) in the experiment on PANC-1 cells turned out to be 3.7 µM; in the experiment on NUGC-3 cells, 4 µM. For the same compound, the “effect on cell proliferation” value in experiment [1] is listed as “growth-inhibitory effect”.
